We go through ten compounds from US20100160332A1, “a2-Adrenoceptor Ligands” (The Provost, Fellows and Scholars of the College of the …, priority 2008, published 2010).

Like-named read-outs stand apart in the source and are kept apart here.

Series [1] concerns α2-ARs. Particulars: J. Med. Chem. 2007 and 2008 studies; cited from earlier work.
For series [2], the target named is T1, α2-ARs (Homo sapiens, UniProt P08913). As to the kind of experiment: [35S]GTPγS binding assay (agonist stimulation) in human brain cortical membranes. Format: biochemical. Particulars: for stimulation of [35S]GTPγS binding (agonist dose-response plot): compound alone. The text has this:
The α2-ARs are G-protein coupled receptors (GPCRs), and as such, when the endogenous ligand binds to the receptor, a change in the conformation of the G-proteins occurs leading to the exchange of GDP by GTP on the α-subunit, promoting their dissociation into α-GTP and βγ subunits, and resulting in transmembrane signalling. A direct evaluation of this G-protein activity can be made by determining the guanine nucleotide exchange using radiolabelled GTP analogues. The [^35S]GTPγS binding assay constitutes a functional measure of the interaction of the receptor and the G-protein and is a useful tool to distinguish between agonists (increasing the nucleotide binding), inverse agonists (decreasing the nucleotide binding), and neutral antagonists (not affecting the nucleotide binding) of GPCRs.
(§1) Preparation of membranes. Neural membranes (P2 fractions) were prepared from the PFC of human brains obtained at autopsy in the Instituto Vasco de Medicine Legal, Bilbao, Spain. Postmortem human brain samples of each subject (˜1 g) were homogenized using a Teflon-glass grinder (10 up-and-down strokes at 1500 rpm) in 30 volumes of homogenization buffer (1 mM MgCl2, and 5 mM Tris-HCl, pH 7.4) supplemented with 0.25 M sucrose. The crude homogenate was centrifuged for 5 min at 1000×g (4° C.) and the supernatant was centrifuged again for 10 min at 40000×g (4° C.). The resultant pellet was washed twice in 20 volumes of homogenization buffer and recentrifuged in similar conditions. Aliquots of 1 mg protein were stored at −70° C. until assay.
[^35S]GTPγS binding assays. The incubation buffer for measuring [^35S]GTPγS binding to brain membranes contained, in a total volume of 500 μL, 1 mM EGTA, 3 mM MgCl2, 100 mM NaCl, […], 50 mM Tris-HCl at pH 7.4 and 0.5 nM [^35S]GTPγS. Proteins aliquots were thawed and re-suspended in the same buffer. The incubation was started by addition of the membrane suspension (40 μg of membrane proteins) to the previous mixture and was performed at 30° C. for 120 min with shaking. In order to evaluate the influence of the compounds on [^35S]GTPγS binding, 8 concentrations (10^−10 to 10^−3M) of the different compounds were added to the assay. Incubations were terminated by adding 3 mL of ice-cold re-suspension buffer followed by rapid filtration through Whatman GF/C filters pre-soaked in the same buffer. The filters were rinsed twice with 3 mL of ice-cold re-suspension buffer, transferred to vials containing 5 mL. of OptiPhase HiSafe II cocktail (Wallac, UK) and the radioactivity trapped was determined by liquid scintillation spectrometry (Packard 2200CA). […] Non-specific binding of the radioligand was defined as the remaining [^35S]GTPγS binding in the presence of 10 μM unlabelled GTPγS.

A further series can be described thus: Tail suspension test. It is filed as in vivo, rat. The text has this: FIG. 4 illustrates the rat tail suspension test for a number of compounds. The tail suspension test has become one of the most widely used models for assessing antidepressant-like activity in mice. The test is based on the fact that animals subjected to the short-term, inescapable stress of being suspended by their tail, will develop an immobile posture. Antidepressant medications reverse the immobility and promote the occurrence of escape-related behaviour.

The target of series [3] is T1, α2-ARs. Put plainly: UK14304 stimulation of [35S]GTPγS binding in absence or presence of compounds (antagonism test). Format: biochemical. Particulars: human brain PFC, in vitro, 10^−5 M. Here is the method: as §1
[^35S]GTPγS binding assays. The incubation buffer for measuring [^35S]GTPγS binding to brain membranes contained, in a total volume of 500 μL, 1 mM EGTA, 3 mM MgCl2, 100 mM NaCl, […], 50 mM Tris-HCl at pH 7.4 and 0.5 nM [^35S]GTPγS. Proteins aliquots were thawed and re-suspended in the same buffer. […] The filters were rinsed twice with 3 mL of ice-cold re-suspension buffer, transferred to vials containing 5 mL. of OptiPhase HiSafe II cocktail (Wallac, UK) and the radioactivity trapped was determined by liquid scintillation spectrometry (Packard 2200CA). […]
For orientation: GTPγS resists hydrolysis and so accumulates on activated G proteins.

The test system of series [4] is extracellular NA levels in the PFC. Put plainly: In-vivo microdialysis, extracellular NA in the PFC of freely moving rats. Further details: species or system rat. Particulars: for Emax, extracellular NA levels: local administration by reverse dialysis 1-100 μM in PFC. From the text: The antagonistic properties of derivative 8b in-vitro, were substantiated by testing its effect on noradrenergic transmission in vivo using microdialysis experiments. This technique is a widely accepted method for sampling the extracellular fluid of the brain, allowing the study of different neurotransmitters in the extracellular area where the probe is implanted. This technique has been used to investigate the effect of different compounds on NA concentrations in the PFC, an area widely implicated in depression. The increase of NA concentration in the PFC of freely moving rats after drug administration is accepted as a good predictor for antidepressant activity. In this context, many antidepressants, including the α2-AR antagonist Mirtazapine, are able to increase dialysate levels of NA in the PFC.
Compounds 8b and RX821002 were dissolved in aCSF and perfussed via reverse dialysis at the time indicated by the arrows (every 70 minutes). Data correspond to the mean±standard error mean values from 3 to 5 animals for each group, and are expressed as percentages of the corresponding basal values.
Control rats were administered with the vehicle (saline). Intraperitoneal administration of compound 8b (10 mg/kg) increased NA extracellular concentration by 161±30% in the PFC. Data are given as mean±standard error mean values from 4-5 separate animals for each group and are expressed as percentages of the corresponding basal values. The arrow represents the time of administration of the compound or vehicle.
Microdialysis experiments Male Sprague-Dawley rats (250-300 g) were implanted with a probe in a stereotaxic apparatus under chloral hydrate anaesthesia (400 mg/kg i.p.). The probe was located in the prefrontal cortex (PFC) according to the co-ordinates of the atlas of Paxinos and Watson (AP (anterior to bregma) +2.8 mm, L (lateral from the mid-sagittal suture) +1 mm, DV (ventral from the dura surface) −5 mm). Experiments were performed 20-24 h after the probe implantation and aCSF (148 mM NaCl, 2.7 mM KCl, 1.2 mM CaCl2 and 0.85 mM MgCl2; pH 7.4) was pumped at a flow rate of 1 μl/min (CMA/Microdialysis infusion pump). […] Samples were collected every 35 min and NA concentrations analyzed by HPLC apparatus with amperometric detection (Hewlett-Packard model 1049A) at an oxidizing potential of +650 mV. […] Samples (injection volume 30 μl) were injected and NA analyzed in a run time of 10 min. […] All measures of extracellular NA concentrations are expressed as percentage of the baseline value±s.e.mean. One-way analysis of variance (ANOVA) for control group or two-way ANOVA between control and each treated group was assessed for statistical analysis. […]

T1 sequence (P08913 whole entry): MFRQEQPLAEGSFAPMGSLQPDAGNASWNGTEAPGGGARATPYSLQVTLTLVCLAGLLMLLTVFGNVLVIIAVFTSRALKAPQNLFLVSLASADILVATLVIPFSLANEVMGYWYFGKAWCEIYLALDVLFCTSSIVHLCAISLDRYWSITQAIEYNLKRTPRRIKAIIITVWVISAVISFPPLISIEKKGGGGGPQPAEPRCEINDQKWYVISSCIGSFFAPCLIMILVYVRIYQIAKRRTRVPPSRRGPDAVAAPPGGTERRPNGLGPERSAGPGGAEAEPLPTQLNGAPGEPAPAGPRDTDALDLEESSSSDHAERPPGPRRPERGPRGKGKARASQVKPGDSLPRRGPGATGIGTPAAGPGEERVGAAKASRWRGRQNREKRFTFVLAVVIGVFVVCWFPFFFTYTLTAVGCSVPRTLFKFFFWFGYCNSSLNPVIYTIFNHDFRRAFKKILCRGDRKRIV

On to `c1cc2c(cc1NC1=NCCN1)OCO2` [5′], for which the “behaviour at α2-ARs” value in the series with α2-ARs [1] is “antagonist behaviour”.

Turning to `N=C(N)Nc1ccc2c(c1)CCCC2` [6′], in the series on α2-ARs [1], the “behaviour at α2-ARs” value was “antagonist behaviour”.

The Emax is the maximal effect, on the per cent scale that the assay sets. For `CNc1ccc(NC2=NCCN2)cc1` [Compound 4b, N-imidazolidin-2-ylidene-N′-methyl-benzene-1,4-diamine], at α2-ARs [2], the Emax turned out to be 98% and the “stimulation of [35S]GTPγS binding (agonist dose-response plot)” value (“stimulation of [35S]GTPγS binding” below) was “stimulated binding of [^35S]GTPγS”.

Turning to `CCNc1ccc(NC2=NCCN2)cc1` [Compound 5b, N-ethyl-N′-imidazolidin-2-ylidene-benzene-1,4-diamine], on α2-ARs [2], the Emax was determined as 95% and the “stimulation of [35S]GTPγS binding” value was “stimulated binding of [^35S]GTPγS”.

Consider `CCN(C)c1ccc(NC2=NCCN2)cc1` [Compound 6b, N-Ethyl-N′-imidazolidin-2-ylidene-N-methyl-benzene-1,4-diamine], for which, at α2-ARs [2], the Emax came to 103% and the “stimulation of [35S]GTPγS binding” value is “stimulated binding of [^35S]GTPγS”.

Consider `CNc1ccc(NC(=N)N)cc1` [Compound 7b, N-(4-methylamino-phenyl)-guanidine], for which, at α2-ARs [2], the “stimulation of [35S]GTPγS binding” value is “stimulated binding of [^35S]GTPγS”. Moreover, on α2-ARs [2] (read-out: Emax (%)), the Emax stood at 87%.

Consider `CCNc1ccc(NC(=N)N)cc1` [Compound 8b, N-(4-ethylamino-phenyl)-guanidine], for which the performance against fluoxetine result in “Tail suspension test” (8b 10 mg/kg vs fluoxetine 40 mg/kg) is given as “vastly outperforms”. In addition, the “time in immobile posture” value in the series “Tail suspension test” (FIG. 4, against all other compounds tested) is given as “shortest length of time”. On α2-ARs [2], the “stimulation of [35S]GTPγS binding” value was “did not stimulate binding of [^35S]GTPγS”. Also, the “nature at α2-ARs from shift of UK14304 EC50” value at α2-ARs [3] is “behaves as an antagonist”. Further, the “ability to cross the blood brain barrier (BBB)” value in series [4] (inferred from NA increase after intraperitoneal administration) is “ability of the compound to cross the blood brain barrier”. Besides, in series [4] (intraperitoneal 10 mg/kg, PFC, percentages of basal values), the “increase of NA extracellular concentration” value was found to be 161±30%. Also, in series [4] (percentages of basal values), the “Emax, extracellular NA levels” value is 304±54%.

Take `CCN(C)c1ccc(NC(=N)N)cc1` [Compound 9b, N-[4-(ethyl-methyl-amino)-phenyl]-guanidine]: the “stimulation of [35S]GTPγS binding” value at α2-ARs [2] was “stimulated binding of [^35S]GTPγS”. At α2-ARs [2] (read-out: Emax (%)), the Emax came to 92%.

Regarding `CCN(CC)c1ccc(NC(=N)N)cc1` [Compound 17, reference compound], the “stimulation of [35S]GTPγS binding” value on α2-ARs [2] was “stimulated binding of [^35S]GTPγS”. For the same compound, the Emax at α2-ARs [2] (read-out: Emax (%)) was 89%.

Regarding `COC1(C2=NCCN2)COc2ccccc2O1` (stereo not shown) [RX821002, 2-methoxy-idazoxan, reference compound], the “Emax, extracellular NA levels” value in series [4] (percentages of basal values) is 290±35%.
